Data on 4 compounds can be found in doi:10.1101/2022.04.17.488584v1, “A cobB like protein in Oryza sativa indica regulates the mitochondrial machinery under stress conditions” (biorxiv, 2022).

SMILES strings stand for the structures. Like-named read-outs stand apart in the source and are kept apart here.

Test [1] concerns the target T1, OscobB (Oryza sativa, UniProt A2XBC4).
T1 construct: gene OsI_09569; cobB-like portion 269-501 of OsI_09569, untagged, modified pET28a (insert 711 bp), E. coli BL21(DE3), ion exchange; 25-28 kDa monomer
T1 sequence (A2XBC4 269-501): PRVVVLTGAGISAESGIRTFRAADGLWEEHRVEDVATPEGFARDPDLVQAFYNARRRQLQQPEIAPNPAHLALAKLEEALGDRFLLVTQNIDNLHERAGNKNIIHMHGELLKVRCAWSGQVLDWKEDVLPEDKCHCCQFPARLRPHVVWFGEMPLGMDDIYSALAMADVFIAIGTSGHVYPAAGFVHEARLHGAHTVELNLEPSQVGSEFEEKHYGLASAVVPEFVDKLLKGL
As to the kind of experiment: dot blot deacetylation assay. The test is classed as biochemical.

Test [2] concerns the target T1, OscobB. As to the kind of experiment: intrinsic tryptophan fluorescence quenching. The test is classed as binding.
Test [3] addresses T1, OscobB. As to the kind of experiment: dot blot deacetylation assay. The test is classed as biochemical. This is another data set of the same source.

With `Nc1ncnc2c1ncn2[C@@H]1O[C@H](COP(=O)(O)OP(=O)(O)OC[C@H]2OC(O)[C@H](O)[C@@H]2O)[C@@H](O)[C@H]1O` (stereo partly shown) [ADP-ribose], half-maximal inhibition in test [1] (NAD+, analog of product O-acetyl-ADP-ribose) (IC50) was put at 410 µM.
For the compound `NC(=O)c1ccc[n+]([C@@H]2O[C@H](COP(=O)(O)OP(=O)(O)OC[C@H]3O[C@@H](n4cnc5c(N)ncnc54)[C@H](O)[C@@H]3O)[C@@H](O)[C@H]2O)c1` [NAD^+], in test [2], the Kd was found to be 30 ± 2 µM.
In test [1], `NC(=O)c1cccnc1` [NAM] came in with a 50% inhibitory concentration (IC50) of 253 ± 45 µM.
`Oc1ccc(/C=C/c2cc(O)cc(O)c2)cc1` [resveratrol] registered an EC50 in test [3] of 51 µM.
